From US20210176992A1, “FU[…] COMBINATION OF A CL[…] AND AN AZOLE” (Bayer Aktiengesellschaft, priority 2018, published 2021)
Several values for one entry are separate records, joined by “and”; a condition that tells them apart may be missing. Identical values can stand only once.

Legend:
[1] = tested on: Fusarium; experiment: Field trial winter wheat 2017, visual assessment of Fusarium control; assay type: in vivo; settings: Laacherhof 2017, application at growth stage 63-65, evaluation Jun. 20, 2017, J1446 500 g/ha, prothioconazole 125 g a.i./ha, control 38% infestation
Experimental: (§1) Impact of Different Compounds on Fusarium Infestation and the DON Content; Field Trial Winter Wheat 2017 at the Laacherhof, Germany
(§2) Application was done on Jun. 1, 2017 at growth stage 63-65. Evaluation was done Jun. 20, 2017. Quantification of deoxynivalenol was performed by LC-MS/MS analysis using a Waters UPLC coupled to a Sciex API4000 mass spectrometer. The column used was a Waters Acquity HSS T3 (2.1×50 mm, 1.8 μm) and solvents were 2 mM ammonium acetate/1% acedic acid and methanol/2 mM ammonium acetate/1% acetic acid used in a 4 min gradient. The mass spectrometer was operated in negative ionization mode (MRM transitions: deoxynivalenol 355>265, 3-acetyl-deoxynivalenol 387>307, respectively). Quantification was performed by external calibration using reference compounds.
(§3) On the other hand, whereas infestation was lower upon application of C. rosea J1446 alone (45 vs. 63%), DON reduction after application of the combination of prothioconazole and C. rosea J1446 was even bigger (60 vs. 30%).

[2] = tested on: DON content; experiment: Field trial winter wheat 2017, deoxynivalenol quantification by LC-MS/MS; assay type: in vivo; settings: Laacherhof 2017, application at growth stage 63-65, J1446 500 g/ha, prothioconazole 125 g a.i./ha, control 3583 ppb DON content
Experimental: as §1, §2, §3

`OC(Cc1ccccc1Cl)(Cn1nc[nH]c1=S)C1(Cl)CC1` (stereo not drawn) [Prothioconazole, prothioconazole] was tested, and the “Visual Assessment Fusarium-Control” value [1] was 66%, the “DON Reduction” value [2] was 41% and the “DON Reduction” value ([2]; listed as prothioconazole) was 40% and 41%.
